# Measurements published in patent US12398107B2, “Fungicidal nitroanilino substituted pyrazoles” (FMC Corporation, priority 2018, dated 2025).
# Experiments:
# Type in all cases: in vivo
# [1] = system: Puccinia recondita f. sp. tritici; assay: Test B: wheat leaf rust, preventive spray on wheat seedlings; conditions: 50 ppm, 100 = 100% disease control, 0 = no control relative to controls
# How it was run: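 Compounds in acetone/water (50/50) with 250 ppm PEG400, sprayed to run-off on wheat seedlings at stated ppm; inoculated next day with P. recondita spores. Held 24 h saturated at 20° C., then 7 days in growth chamber at 20° C.; rating 0–100 = % disease control vs controls.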
# Septoria tritici = assay: Test A: wheat leaf blotch, preventive spray on wheat seedlings; conditions: 50 ppm, 100 = 100% disease control, 0 = no control relative to controls
# How it was run: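 Compounds were suspended in acetone/water (50/50) with 250 ppm PEG400 and sprayed to run-off on wheat seedlings. The next day the seedlings were inoculated with Septoria tritici spores, held 48 h at 24 °C in saturated humidity, then 17 days at 20 °C. Disease control was rated 0–100 relative to controls.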
# [2] = system: Blumeria graminis f. sp. tritici; assay: Test C: wheat powdery mildew, preventive spray on wheat seedlings; conditions: 50 ppm, rated after 8 days, 100 = 100% disease control, 0 = no control
# How it was run: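 Compound dissolved in acetone (3% of final volume), then suspended in 50/50 acetone/water with 250 ppm PEG400 and sprayed to run-off on wheat seedlings. Inoculated next day with B. graminis f. sp. tritici spore dust, kept 8 days at 20° C; visual rating, 100 = full control, 0 = none, relative to controls.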
# Alternaria solani = assay: Test F: tomato early blight, preventive spray on tomato seedlings; conditions: 50 ppm, 100 = 100% disease control, 0 = no control
# How it was run: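 Compounds in acetone/water (50/50) with 250 ppm PEG400, dosed in ppm, sprayed to run-off on tomato seedlings; next day inoculated with A. solani spores. Held 48 h saturated at 27° C, then 3 days at 20° C; visual rating 0–100% disease control relative to controls.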
# Botrytis cinerea = assay: Test E: tomato Botrytis, preventive spray on tomato seedlings; conditions: 50 ppm, 100 = 100% disease control, 0 = no control
# How it was run: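 Tomato seedlings sprayed to run-off with compound (ppm) in acetone/water with 250 ppm PEG400, then inoculated next day with B. cinerea spores. Held 48 h at 20 °C in saturated atmosphere, then 3 days at 24 °C. Visual rating 0–100% disease control relative to untreated controls.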
# Phakopsora pachyrhizi = assay: Test D: Asian soybean rust, preventive spray on soybean seedlings; conditions: 50 ppm, 100 = 100% disease control, 0 = no control
# How it was run: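 Soybean seedlings sprayed to run-off with compound suspension (ppm, in 50/50 acetone/water with 250 ppm PEG400), inoculated next day with P. pachyrhizi spores, held 24 h saturated at 22°C then 8 days at 22°C. Visual rating 0-100% disease control relative to controls.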
Compound,Test B disease control rating (wheat leaf rust) [1] [%],Test A disease control rating (wheat leaf blotch) (Septoria tritici) [%],Test C disease control rating (wheat powdery mildew) [2] [%],Test F disease control rating (tomato early blight) (Alternaria solani) [%],Test E disease control rating (tomato Botrytis) (Botrytis cinerea) [%],Test D disease control rating (Asian soybean rust) (Phakopsora pachyrhizi) [%]
Cc1nn(C)c(Nc2ccccc2[N+](=O)[O-])c1-c1c(F)cc(F)cc1F [Compound 149],80,100,97,96,99,0
COc1ccc(Nc2c(-c3c(F)cc(C#N)cc3F)c(C)nn2C)c([N+](=O)[O-])c1 [Compound 150],100,100,98,99,100,13
Cc1nn(C)c(Nc2c(F)cccc2[N+](=O)[O-])c1-c1c(F)cc(Cl)cc1F [Compound 151],100,100,99,99,99,0
Cc1nn(C)c(Nc2c(Cl)cccc2[N+](=O)[O-])c1-c1c(F)cc(F)cc1Cl [Compound 152],100,99,98,92,99,91
Cc1cccc([N+](=O)[O-])c1Nc1c(-c2c(F)cc(F)cc2Cl)c(C)nn1C [Compound 153],100,99,99,72,99,73
Cc1nn(C)c(Nc2ccccc2[N+](=O)[O-])c1-c1c(F)cc(F)cc1Br [Compound 154],80,99,98,51,99,0
Cc1nn(C)c(Nc2c(F)cc(Br)cc2[N+](=O)[O-])c1-c1ccc(C#N)cc1Cl [Compound 155],99,99,90,93,100,0
Cc1cc(Cl)c(Nc2c(-c3ccc(C#N)cc3Cl)c(C)nn2C)c([N+](=O)[O-])c1 [Compound 156],91,91,66,0,0,0
Cc1cccc([N+](=O)[O-])c1Nc1c(-c2ccc(C#N)cc2Cl)c(C)nn1C [Compound 157],97,100,76,0,9,0
Cc1nn(C)c(Nc2c(Cl)cccc2[N+](=O)[O-])c1-c1c(F)cc(F)cc1F [Compound 158],100,99,99,83,99,87
COc1ccc(Nc2c(-c3c(F)cc(F)cc3F)c(C)nn2C)c([N+](=O)[O-])c1 [Compound 159],100,100,100,99,99,13
COc1cc(F)c(-c2c(C)nn(C)c2Nc2c(Cl)cccc2[N+](=O)[O-])c(F)c1 [Compound 160],100,98,96,99,100,86
COc1cc(F)c(-c2c(C)nn(C)c2Nc2ccc(OC)cc2[N+](=O)[O-])c(F)c1 [Compound 161],100,100,100,99,100,0
COc1cc(F)c(-c2c(C)nn(C)c2Nc2c(C)cccc2[N+](=O)[O-])c(F)c1 [Compound 162],100,100,99,98,97,77
Cc1nn(C)c(Nc2c(Cl)cccc2[N+](=O)[O-])c1-c1c(F)cc(F)cc1Br [Compound 163],100,99,98,76,88,78
COc1ccc(Nc2c(-c3c(F)cc(F)cc3Br)c(C)nn2C)c([N+](=O)[O-])c1 [Compound 164],100,100,98,99,100,0
COc1cc(F)c(Nc2c(-c3ccc(F)cc3Br)c(C)nn2C)c([N+](=O)[O-])c1 [Compound 165],100,99,98,100,100,94
COc1cc(F)c(Nc2c(-c3ccc(C#N)cc3Cl)c(C)nn2C)c([N+](=O)[O-])c1 [Compound 166],100,99,98,100,99,98
Cc1cccc([N+](=O)[O-])c1Nc1c(-c2c(F)cc(F)cc2F)c(C)nn1C [Compound 167],100,100,98,98,95,65
Cc1nn(C)c(Nc2ccccc2[N+](=O)[O-])c1-c1c(F)cc(Cl)cc1F [Compound 168],74,100,97,40,99,0
Cc1cccc([N+](=O)[O-])c1Nc1c(-c2c(F)cc(F)cc2Br)c(C)nn1C [Compound 169],100,100,100,0,98,0
CCc1nn(C)c(Nc2c(F)cccc2[N+](=O)[O-])c1-c1c(F)cc(Cl)cc1F [Compound 170],99,100,99,99,100,0
